Calls of active or inactive are those of the source.
What was measured:
[1] = target: T1, Mannose-6-phosphate isomerase (Homo sapiens, UniProt P34949); assay: MPI inhibition at elevated mannose 6-phosphate – biochemical, fluorescence intensity, high mannose 6-phosphate, primary screen (AID 1220)
T1 sequence (P34949 whole entry): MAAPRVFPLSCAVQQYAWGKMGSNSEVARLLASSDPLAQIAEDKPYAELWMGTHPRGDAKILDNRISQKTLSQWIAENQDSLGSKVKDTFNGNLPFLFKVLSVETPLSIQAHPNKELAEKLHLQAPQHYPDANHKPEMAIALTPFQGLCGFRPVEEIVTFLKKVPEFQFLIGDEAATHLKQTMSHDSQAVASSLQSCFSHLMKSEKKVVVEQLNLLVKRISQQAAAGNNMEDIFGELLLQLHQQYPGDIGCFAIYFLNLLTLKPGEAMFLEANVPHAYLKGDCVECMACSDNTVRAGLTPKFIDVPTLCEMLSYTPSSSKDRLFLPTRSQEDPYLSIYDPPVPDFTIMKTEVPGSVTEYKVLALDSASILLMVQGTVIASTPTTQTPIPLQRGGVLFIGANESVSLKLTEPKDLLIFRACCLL

[2] = target: T2, Sentrin-specific protease 7 (Homo sapiens, UniProt Q9BQF6); format: functional;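 note: Luminescence-based dose-response confirmation of ultra-high-throughput screening hits, measuring inhibition of SENP7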
T2 sequence (Q9BQF6 whole entry): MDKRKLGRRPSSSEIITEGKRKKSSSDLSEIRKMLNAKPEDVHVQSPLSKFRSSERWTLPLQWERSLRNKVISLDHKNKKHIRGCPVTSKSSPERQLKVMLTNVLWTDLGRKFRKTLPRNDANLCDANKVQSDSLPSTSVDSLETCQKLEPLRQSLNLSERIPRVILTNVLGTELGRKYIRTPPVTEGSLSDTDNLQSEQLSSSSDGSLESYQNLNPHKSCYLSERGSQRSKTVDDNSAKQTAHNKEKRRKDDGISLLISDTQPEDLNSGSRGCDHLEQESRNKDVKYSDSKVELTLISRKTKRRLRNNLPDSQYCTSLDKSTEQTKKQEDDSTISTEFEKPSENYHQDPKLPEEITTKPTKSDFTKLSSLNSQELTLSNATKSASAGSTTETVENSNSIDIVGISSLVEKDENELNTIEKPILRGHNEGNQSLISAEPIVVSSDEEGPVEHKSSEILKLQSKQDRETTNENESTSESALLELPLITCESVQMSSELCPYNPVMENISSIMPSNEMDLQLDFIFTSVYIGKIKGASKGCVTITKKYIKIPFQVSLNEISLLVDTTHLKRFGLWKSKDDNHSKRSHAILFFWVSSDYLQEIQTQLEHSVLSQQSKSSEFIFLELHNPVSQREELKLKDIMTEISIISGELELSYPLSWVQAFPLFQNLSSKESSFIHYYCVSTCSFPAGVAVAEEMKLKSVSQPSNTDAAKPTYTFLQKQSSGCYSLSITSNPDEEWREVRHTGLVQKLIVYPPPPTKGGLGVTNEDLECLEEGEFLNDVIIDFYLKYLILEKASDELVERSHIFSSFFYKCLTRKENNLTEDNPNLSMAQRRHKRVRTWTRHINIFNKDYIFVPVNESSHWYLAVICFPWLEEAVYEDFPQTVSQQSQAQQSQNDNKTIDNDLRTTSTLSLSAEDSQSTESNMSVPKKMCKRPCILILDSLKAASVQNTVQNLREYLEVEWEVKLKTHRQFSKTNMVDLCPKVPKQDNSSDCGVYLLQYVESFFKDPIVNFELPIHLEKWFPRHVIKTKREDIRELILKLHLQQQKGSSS

[3] = target: T3, Sentrin-specific protease 6 (Homo sapiens, UniProt Q9GZR1); format: functional;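 note: Luminescence-based dose-response confirmatory assay of SENP6 inhibition, following up an ultra-high-throughput screen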
T3 sequence (Q9GZR1 whole entry): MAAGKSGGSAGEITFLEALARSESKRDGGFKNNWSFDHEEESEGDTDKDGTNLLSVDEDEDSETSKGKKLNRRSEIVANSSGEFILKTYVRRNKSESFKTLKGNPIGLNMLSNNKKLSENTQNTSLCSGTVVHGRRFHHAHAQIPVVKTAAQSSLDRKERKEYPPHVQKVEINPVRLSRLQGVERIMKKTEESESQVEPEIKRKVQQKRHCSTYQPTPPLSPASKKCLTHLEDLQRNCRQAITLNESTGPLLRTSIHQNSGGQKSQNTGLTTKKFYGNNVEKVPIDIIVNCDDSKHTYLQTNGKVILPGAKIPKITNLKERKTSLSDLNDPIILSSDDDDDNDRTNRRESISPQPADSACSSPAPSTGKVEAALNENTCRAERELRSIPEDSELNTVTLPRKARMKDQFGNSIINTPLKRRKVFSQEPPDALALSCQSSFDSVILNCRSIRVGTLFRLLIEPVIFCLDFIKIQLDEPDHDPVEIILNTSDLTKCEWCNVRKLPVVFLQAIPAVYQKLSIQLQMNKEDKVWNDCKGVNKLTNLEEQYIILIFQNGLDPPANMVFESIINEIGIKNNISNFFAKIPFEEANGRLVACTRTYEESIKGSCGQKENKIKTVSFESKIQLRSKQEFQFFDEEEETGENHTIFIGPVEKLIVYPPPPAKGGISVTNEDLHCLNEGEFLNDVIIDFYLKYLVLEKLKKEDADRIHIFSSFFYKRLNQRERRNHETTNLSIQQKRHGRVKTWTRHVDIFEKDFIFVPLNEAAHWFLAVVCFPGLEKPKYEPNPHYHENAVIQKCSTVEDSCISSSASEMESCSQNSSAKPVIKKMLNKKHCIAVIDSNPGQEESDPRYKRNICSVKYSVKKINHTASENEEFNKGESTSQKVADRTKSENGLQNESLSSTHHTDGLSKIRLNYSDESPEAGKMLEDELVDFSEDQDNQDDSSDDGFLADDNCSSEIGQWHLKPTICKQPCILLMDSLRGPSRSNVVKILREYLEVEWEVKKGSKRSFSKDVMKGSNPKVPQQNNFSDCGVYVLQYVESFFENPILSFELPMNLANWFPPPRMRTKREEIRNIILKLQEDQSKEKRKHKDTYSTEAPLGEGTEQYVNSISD

Caspase-3 = target: T4, Caspase-3 (Homo sapiens, UniProt P42574); format: functional;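 note: Dose-response selectivity test against caspase-3 for candidate inhibitors of sentrin-specific proteases (SENPs)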
T4 sequence (P42574 whole entry): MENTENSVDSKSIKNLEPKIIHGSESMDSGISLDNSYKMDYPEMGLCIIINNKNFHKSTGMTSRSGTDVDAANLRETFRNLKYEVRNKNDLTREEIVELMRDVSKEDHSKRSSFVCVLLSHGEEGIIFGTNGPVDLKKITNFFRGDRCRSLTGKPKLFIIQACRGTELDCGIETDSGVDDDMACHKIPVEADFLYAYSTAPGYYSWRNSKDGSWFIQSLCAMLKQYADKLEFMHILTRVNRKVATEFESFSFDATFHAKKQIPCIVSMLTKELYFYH

[4] = target: T5, Sentrin-specific protease 8 (Homo sapiens, UniProt Q96LD8); format: functional;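 note: luminescence read-out of SENP8 inhibition, dose-response confirmation following an ultra-high-throughput screen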
T5 sequence (Q96LD8 whole entry): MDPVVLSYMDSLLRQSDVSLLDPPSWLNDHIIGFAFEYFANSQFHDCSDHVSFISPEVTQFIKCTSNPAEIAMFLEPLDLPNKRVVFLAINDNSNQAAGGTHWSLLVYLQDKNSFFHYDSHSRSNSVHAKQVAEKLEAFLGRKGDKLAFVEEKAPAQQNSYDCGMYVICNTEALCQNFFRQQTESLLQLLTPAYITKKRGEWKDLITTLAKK

BJ [5] = assay: growth inhibition of engineered Ras-driven BJ cells – cell-based, alamar blue fluorescence, cherrypicked samples, dose response (AID 2631); format: functional; conditions: Homo sapiens;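 note: confirmatory dose-response assay in RAS-dependent BJ fibroblasts engineered with TERT, LT and ST, with cytotoxicity read by fluorescence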
BJ [6] = assay: BJ-TERT fibroblast viability loss – cell-based, RAS-independent, luminescence, dose response (AID 1933); format: functional; conditions: Homo sapiens
INS1 = assay: INS-1E survival protection against cytokine death – cell-based, luminescence, retest, dose response (AID 449756); format: functional; conditions: Rattus norvegicus;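 note: cell death triggered by IL-1 beta plus TNF-alpha plus IFN-gamma mixture; protective hits raise ATP signal compared with cytokine alone wells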
[7] = DRD fibroblast viability loss – cell-based, non-viral oncogenic, luminescence, dose response (AID 1934); format: functional; conditions: Homo sapiens
BJ [8] = assay: BJ-TERT-LT-ST fibroblast viability loss – cell-based, RAS-independent, luminescence, dose response (AID 1935); format: functional; conditions: Homo sapiens;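 note: BJ fibroblasts immortalized with TERT plus LT and ST oncogenes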
BJ [9] = assay: cells; format: functional, cell-based; conditions: Homo sapiens
[10] = microbe, parasite or virus in culture; format: functional; conditions: Mycobacterium tuberculosis
Prothrombin = Prothrombin (Homo sapiens, UniProt P00734); assay: Thrombin 1536 HTS Dose Response Confirmation. [Related pubchem assays: 1046 (Thrombin 1536 HTS; hits were confirmed in this assay)]; format: functional
H4 = assay: Luminescence Cell-Based Dose Response HTS to Identify Activators of 5'UTR Stem-Loop Driven Prion Protein mRNA Translation in H4 Neuroglioblastoma Cells. [Related pubchem assays: 1829 (Project Summary), 1814 (Primary HTS)]; format: functional; conditions: Homo sapiens
SN12K1 = assay: cells; format: functional; conditions: Homo sapiens
P388/ADR = assay: cells; format: functional; conditions: Mus musculus
P388 = assay: cells; format: functional; conditions: Mus musculus
[11] = viability of uninfected HEp-2 cells – cell-based, HTS, cytotoxicity control for RSV inhibitor project, dose response (AID 2410); format: functional; conditions: human respiratory syncytial virus
[12] = intracellular Trypanosoma cruzi inhibitors in host cells – cell-based, plate reader, cherry-pick samples, set 3, dose response (AID 651818); format: functional;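 note: compounds incubated with infected cells for about four days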

## Cc1ccc(NC(=O)CN(C)C(=O)COc2cccc3cccnc23)cc1
[1]
  IC50: 44.5 µM (active)

## COc1ccc(NC(=O)c2cccc(Oc3ccccc3)c2)cn1
[2]
  IC50: 4.98 µM (active)
[3]
  IC50: 15.6 µM (active)
Caspase-3
  IC50: 17.5 µM (active)
[4]
  IC50: 16.4 µM (active)

## O=C(Cc1ccc(Cl)cc1)c1c[nH]c(C(=O)NCc2cccnc2)c1
BJ [5]
  EC50: 4.8 µM (active)
BJ [6]
  EC50: 11.3 µM (inconclusive)
INS1
  AC50: 0.907 µM (active)
[7]
  EC50: > 150 µM (not active)
BJ [8]
  EC50: > 150 µM (inconclusive)
BJ [9]
  EC50: 6.96 µM (active)

## CCN(Cc1ccncc1)Cc1c(O)ccc2cc(Br)ccc12
[1]
  IC50: > 50 µM (not active)

## COc1cc(CN2CCN(c3ccccc3F)CC2)c([N+](=O)[O-])cc1OC
[1]
  IC50: > 50 µM (not active)

## Cc1ccc(NS(=O)(=O)c2ccc(NC(=O)CN(c3cc([N+](=O)[O-])ccc3C)S(C)(=O)=O)cc2)c(C)c1
BJ [5]
  EC50: > 133 µM (inactive)
BJ [6]
  EC50: 39.7 µM (active)
INS1
  AC50: 1.49 µM (active)
[7]
  EC50: > 75 µM (not active)
[10]
  CC50: 4.92 µM (active)
BJ [8]
  EC50: > 150 µM (inconclusive)
BJ [9]
  EC50: > 75 µM (not active)

## CCn1c(SCC(N)=O)nnc1C(C)C
Prothrombin
  IC50: > 50 µM (not active)

## Cc1cccc(NC(=O)COc2ccc(Br)cc2C)n1
[2]
  IC50: 4.31 µM (active)
[3]
  IC50: 9.12 µM (active)
Caspase-3
  IC50: 13.9 µM (active)
[4]
  IC50: > 100 µM (inactive)

## Cn1c(C(=O)Nc2ccc3c(c2)OCO3)cc2sccc21
[2]
  IC50: 4.52 µM (active)
H4
  EC50: 35 µM (active)
[3]
  IC50: 16.1 µM (active)
Caspase-3
  IC50: 14.4 µM (active)
[4]
  IC50: 19.5 µM (active)

## CN1CCN(P2(=S)Oc3ccc4ccccc4c3-c3c(ccc4ccccc34)O2)CC1
SN12K1
  GI50: 21.8 µM (inactive)
P388/ADR
  GI50: 26.2 µM (inactive)
P388
  GI50: 24.1 µM (inactive)

## CC(C)=CCC/C(C)=C/CCC1(C)C=Cc2c(c3ccccc3oc2=O)O1 (stereo not drawn)
SN12K1
  GI50: 16.9 µM (inactive)
P388/ADR
  GI50: 20.2 µM (inactive)
P388
  GI50: 15.2 µM (inactive)

## COC1=C2CC(C)CC(OC)C(O)C(C)/C=C(\C)C(OC(N)=O)C(OC)/C=C\C=C(/C)C(=O)NC(=C(/C=N/C(C)(C)C)C1=O)C2=O (stereo not drawn)
SN12K1
  GI50: 3.64 µM (inactive)
P388/ADR
  GI50: 3.72 µM (inactive)
P388
  GI50: 2.33 µM (inactive)

## CCOC(=O)/C=C/c1c(C)[nH]c(=O)[nH]c1=O
SN12K1
  GI50: > 250 µM (inactive)
P388/ADR
  GI50: 169 µM (inactive)
P388
  GI50: 158 µM (inactive)

## S=C(N/N=C/c1ccc2ncccc2c1)Nc1ccccc1
BJ [5]
  EC50: > 133 µM (inactive)
BJ [6]
  EC50: 27.7 µM (active)
[7]
  EC50: 14.3 µM (active)
BJ [8]
  EC50: > 150 µM (inconclusive)
[11]
  CC50: 31.2 µM (active)
BJ [9]
  EC50: 10.7 µM (active)

## C/C(=N\NS(=O)(=O)c1ccccc1)c1ccccc1
SN12K1
  GI50: > 100 µM (inactive)
P388/ADR
  GI50: > 100 µM (inactive)
P388
  GI50: > 100 µM (inactive)

## Cc1ccc(S(=O)(=O)Nc2ccc3c(c2)CC(=O)N([C@H](C)CO)C[C@@H](C)[C@H](CN(C)Cc2ccc(C(=O)Nc4ccccc4N)cc2)O3)cc1
[12]
  AC50: 2.94 µM (active)

## C[C@@H]1CN([C@H](C)CO)C(=O)Cc2cc(NC(=O)c3ccncc3)ccc2O[C@H]1CN(C)Cc1ccc(-c2ccccc2)cc1
[12]
  AC50: 3.08 µM (active)

## C[C@@H]1CN([C@H](C)CO)C(=O)c2cccc(NC(=O)c3nc4ccccc4s3)c2O[C@H]1CN(C)Cc1ccc(C(=O)Nc2ccccc2N)cc1
[12]
  AC50: 1.49 µM (active)

## C[C@@H]1CN([C@@H](C)CO)C(=O)c2cc(NC(=O)Nc3ccc(C(F)(F)F)cc3)ccc2O[C@@H]1CN(C)S(=O)(=O)c1ccc(F)cc1
[12]
  AC50: 4.21 µM (active)

## C[C@@H]1CN([C@H](C)CO)C(=O)Cc2cc(NS(=O)(=O)c3ccccc3)ccc2O[C@@H]1CN(C)Cc1ccc(Oc2ccccc2)cc1
[12]
  AC50: 4.87 µM (active)

## Nc1cc(Cl)nc(N/N=C/c2c(O)ccc3ccccc23)n1
[2]
  IC50: 5.83 µM (active)
[3]
  IC50: > 100 µM (inactive)
Caspase-3
  IC50: 48 µM (active)
[4]
  IC50: > 100 µM (inactive)

## C=C(C)C(=O)O[C@H]1CC2=C[C@@H](C[C@@]3(C)O[C@@H]3[C@H]3OC(=O)C(=C)[C@@H]31)OC2=O [ELEPHANTOPIN]
SN12K1
  GI50: 4.73 µM (inactive)
P388/ADR
  GI50: 0.166 µM (active)
P388
  GI50: 0.124 µM (active)
